Holding throughout (format): cell-based, human
In one assay the test system is Hs746T. Kind of assay: cell viability of diffuse-type GC cell line Hs746T after inhibitor treatment. The following applies: 2.5 μM, 5 μM and 10 μM, triplicate. The text has this:
(§1) The potential tumor antigens (pTAs) expression and signaling pathways were validated in vitro. To validate the association of pTAs with the EMT-like subtype of gastric cancer, the pTAs expression at intestinal-type and diffuse-type GC cell lines were investigated by western blotting. The human GC cell line AGS was obtained from American Type Culture Collection (ATCC) CRL-1739™, and Hs746T was obtained from ATCC HTB-135™, and SNU-1 was obtained from ATCC CRL5971™. Hs746T and SNU-1 were diffuse-type GC cell lines; AGS was an intestinal type GC cell line.
(§2) Therefore, two inhibitors (SB431542 and GDC-0449 (Vismodegib)) were used to validate whether the TGF-β and hedgehog signaling pathways were activated in diffuse-type GC cell lines, respectively. The experiments were performed in triplicate.

The next assay relates to SNU-1. Nature of the assay: cell viability of diffuse-type GC cell line SNU-1 after inhibitor treatment. The following applies: 2.5 μM, 5 μM and 10 μM, triplicate.
Excerpt: as §1, §2

In the next assay the test system is AGS. Nature of the assay: cell viability of intestinal type GC cell line AGS after inhibitor treatment. The following applies: for cell viability (inhibiting effect): 2.5 μM, 5 μM and 10 μM, triplicate.
Excerpt: as §1, §2

From US12637717B2, “Method for treating and predicting prognosis of gastric cancer patient by calculating RNA expression with logistic regression” (National Yang Ming Chiao Tung University, priority 2022, dated 2026) come the findings set out here.

Turning to `NC(=O)c1ccc(-c2nc(-c3ccc4c(c3)OCO4)c(-c3ccccn3)[nH]2)cc1` [SB431542], the cell viability result in the assay with Hs746T and with SNU-1 was “significantly decreased” each time. Besides, in the assay on AGS, the “cell viability (inhibiting effect)” value is on record as “did not have significant effects of inhibiting”.

`CS(=O)(=O)c1ccc(C(=O)Nc2ccc(Cl)c(-c3ccccn3)c2)c(Cl)c1` [GDC-0449, Vismodegib]: the cell viability result in the assay on Hs746T and in the assay with SNU-1 was “significantly decreased” in each case. In the assay with AGS, the “cell viability (inhibiting effect)” value is “did not have significant effects of inhibiting”. For the same molecule, in the assay with AGS (concentrations of 2.5 μM and 5 μM), the effect on proliferation entry was “effects of promoting proliferation”.
